Data as given in publication PMC12197210, “mPEG-PCL Nanoparticles to Improve Oral Bioavailability of Acalabrutinib: Effect of Polymer Lipophilicity and Hydrophilicity on Physicochemical Properties and In Vivo Performance in Rats” (Pharmaceutics, 2025).
Values after ≈ are worked out from the molar mass of the structure shown. Where two headings read alike, the source gives them in different places.

Legend:
[1] = cited from earlier work
[2] = tested on: CYP3A enzyme system; set-up: method as in earlier work; details: cited from earlier work
[3] = tested on: P-glycoprotein (P-gp) efflux transporter; set-up: method as in earlier work; details: cited from earlier work
[4] = In vitro dissolution/drug release, USP Type II apparatus, membrane-less method; format: physicochemical
Experimental: A membrane-less method using a USP Type II dissolution apparatus (Manual operating model with 8 stations, Electrolab (India) Pvt. Ltd., Mumbai, India) was employed to evaluate the dissolution and drug release behavior of both bulk ACP and freeze-dried ACP-PLHNs (both types, equivalent to 100 mg free base) under physiological pH conditions. The gastrointestinal pH was simulated with three different buffer solutions: a 0.1 N HCl buffer (pH 1.2 ± 0.02, volume = 250 mL) representing the fasted stomach; an acetate buffer (pH 4.5 ± 0.02, volume = 250 mL) representing the fed stomach; and a phosphate buffer solution (PBS, pH 6.8 ± 0.02, volume = 900 mL) representing the intestinal environment. To simulate blood/plasma conditions, 500 mL of PBS (pH 7.2 ± 0.02) was used. To maintain sink conditions, 0.5% w/v sodium dodecyl sulfate (SDS) was added to media with pH ≥ 4.5, and the volume of medium was kept at 3× the volume required to maintain the saturation solubility of ACP. The formulations were dispersed in the dissolution media, which was continuously stirred at 75 rpm and maintained at 37 ± 2 °C. Samples (1000 μL) were withdrawn at specific time intervals and replaced with an equal volume of fresh media (pre-heated to 37 ± 2 °C). The samples were then centrifuged at 15,373× g for 5 min, and the supernatant was collected, diluted with the mobile phase (methanol and a 10 mM ammonium acetate buffer, pH 3.5, in a 52:48 v/v ratio), and analyzed using the HPLC-UV method outlined in Section 2.3.3. The dissolution data were fitted to different mathematical models to determine the drug release kinetics. The best-fitting model was identified based on the regression coefficient.

[5] = set-up: method as in earlier work; details: cited from earlier work

In the case of `CC#CC(=O)N1CCC[C@H]1c1nc(-c2ccc(C(=O)Nc3ccccn3)cc2)c2c(N)nccn12` [ACP, Acalabrutinib], the aqueous solubility ([1]; pH 1) is listed as 29.2 mg/mL (≈ 62700 µM), the aqueous solubility ([1]; pH 4.5) is listed as 0.159 mg/mL (≈ 342 µM) and the aqueous solubility ([1]; pH 6.8) is listed as 0.0523 mg/mL (≈ 112 µM). The “solubility” value ([1]; pH values above 6) was “practically insoluble”, the “metabolism by CYP3A” value [2] was “metabolized by the CYP3A enzyme system” and the “P-gp efflux transporter substrate status” value [3] was “substrate”. The “time to complete dissolution” value ([4]; pH 1.2, sink conditions) was at most 30 min, the “time to complete dissolution” value ([4]; pH 4.5, sink conditions) was at most 30 min and the “time of complete (100%) release/dissolution” value ([4]; pH 6.8, sink conditions) was at most 2 h. For the same compound, the “time of complete (100%) release/dissolution” value ([4]; pH 7.2, sink conditions) was at most 4 h and the oral bioavailability [5] was 25 ± 11%.
